Source: patent US6544989B2, “Benzazoles: benzoxazole, benzthiazole and benzimidazole derivatives” (Syngenta Limited, priority 1998, dated 2003)

Tests used:
[1] = test system: Phytophthora infestans lycopersici; assay type: in vivo; settings: METHOD 2 (unbanded)
[2] = test system: Puccinia recondita; assay: Fungicidal test, Puccinia recondita (PUCCRT) on wheat, PRCO; assay type: in vivo; settings: METHOD 2 (unbanded)
[3] = test system: Musca domestica; settings: 500 ppm by weight; knockdown assessed 15 minutes after treatment
[4] = test system: Meloidogyne incognita; assay: Nematode test, J2 infective juveniles of Meloidogyne incognita, mortality; settings: 12.5 ppm; J2 infective juveniles suspended in solution; mortality after three days
Protocol: The activities of individual compounds of formula (I) were determined using a variety of pests. With the exception of nematodes, the pests were treated with a liquid composition containing 500 parts per million (ppm) by weight of a compound unless otherwise stated. Each composition was made by dissolving the compound in an acetone and ethanol (50:50 by volume) mixture and diluting the solution with water containing 0.05% by volume of a wetting agent, SYNPERONIC NP8, until the liquid composition contained the required concentration of the compound.
The test procedure for nematodes involved dissolving the compound in an acetone and ethanol (50:50 by volume) mixture and diluting the solution with water to obtain a final concentration of the compound of 12.5 ppm. J2 infective juveniles of Meloidogyne incognita were suspended in the solution in a glass vial and mortality assessed after a period of three days.

Compound	PHYTIN 1 d Prot/Foir PRCO [1]	PUCCRT 1 d Prot/Foir PRCO [2]	MUSCDO AC = Musca domestica (knockdown), score [3]	MELGIN = Meloidogyne incognita, grading of mortality (score) [4]
Cc1nc2cc(CC(=O)N(C)c3snc(C)c3Cl)ccc2o1 [2(B3)]	100	96	9 (9 indicates 80-100% mortality)	0 (0 indicates less than 40% mortality)
CCN(C(=O)Cc1ccc2oc(C)nc2c1)c1snc(C)c1Cl [2(C3)]	150	74	9 (9 indicates 80-100% mortality)	0 (0 indicates less than 40% mortality)
CCCN(C(=O)Cc1ccc2oc(C)nc2c1)c1snc(C)c1Cl [2(D3)]	59	96	0 (0 indicates less than 40% mortality)	0 (0 indicates less than 40% mortality)
C=CCN(C(=O)Cc1ccc2oc(C)nc2c1)c1snc(C)c1Cl [2(E3)]	98	99	0 (0 indicates less than 40% mortality)	0 (0 indicates less than 40% mortality)
C#CCN(C(=O)Cc1ccc2oc(C)nc2c1)c1snc(C)c1Cl [2(F3)]	100	90	0 (0 indicates less than 40% mortality)	0 (0 indicates less than 40% mortality)
COCN(C(=O)Cc1ccc2oc(C)nc2c1)c1snc(C)c1Cl [2(K3)]	98	97	9 (9 indicates 80-100% mortality)	0 (0 indicates less than 40% mortality)
CCOCN(C(=O)Cc1ccc2oc(C)nc2c1)c1snc(C)c1Cl [2(L3)]	82	93	9 (9 indicates 80-100% mortality)	0 (0 indicates less than 40% mortality)
COCCOCN(C(=O)Cc1ccc2oc(C)nc2c1)c1snc(C)c1Cl [2(M3)]	83	68	0 (0 indicates less than 40% mortality)	0 (0 indicates less than 40% mortality)
COCN(C(=O)Cc1ccc2oc(CC(C)(C)C)nc2c1)c1snc(C)c1Cl [15(K3)]	–	–	0 (0 indicates less than 40% mortality)	0 (0 indicates less than 40% mortality)
CC=Cc1nc2cc(CC(=O)Nc3snc(C)c3Cl)ccc2o1 [45(A3)]	–	–	9 (9 indicates 80-100% mortality)	0 (0 indicates less than 40% mortality)
Cc1nsc(NC(=O)Cc2ccc3oc(C(F)(F)C(F)(F)Cl)nc3c2)c1Cl [86(A3)]	–	–	–	0 (0 indicates less than 40% mortality)
Cc1nsc(NC(=O)Cc2ccc3oc(Cl)nc3c2)c1Cl [174(A3)]	–	–	0 (0 indicates less than 40% mortality)	0 (0 indicates less than 40% mortality)
Cc1nsc(NC(=O)Cc2ccc3oc(-c4ccc([N+](=O)[O-])cc4Cl)nc3c2)c1Cl [267(A3)]	–	–	–	0 (0 indicates less than 40% mortality)
Cc1nsc(NC(=O)Cc2ccc3oc(-c4ccccc4F)nc3c2)c1Cl [272(A3)]	–	–	–	0 (0 indicates less than 40% mortality)
Cc1nsc(NC(=O)Cc2ccc3oc(Cc4cccs4)nc3c2)c1Cl [334(A3)]	–	–	–	0 (0 indicates less than 40% mortality)
Cc1nsc(NC(=O)Cc2ccc3oc(-c4cccnc4Cl)nc3c2)c1Cl [343(A3)]	–	–	–	0 (0 indicates less than 40% mortality)
Cc1nsc(NC(=O)Cc2ccc3oc(-c4ccno4)nc3c2)c1Cl [349(A3)]	–	–	–	0 (0 indicates less than 40% mortality)
